Experimental data: patent US20250137050A1, “METHODS AND COMPOSITIONS FOR DETERMINING RISK OF AUTISM SPECTRUM DISORDERS” (The Regents of the University of California, priority 2021, published 2025)
Entries after “also recorded” stand apart in the source; their conditions may differ.

How the values were obtained:
Assay type in all cases: cell-based, human
LUHMES cells [1] = assay: Cell viability (CellTiter Blue) of LUHMES cells after hypoxia mimetic; details: differentiated LUHMES neurons compared with undifferentiated; CoCl2 for 24 hours
Protocol: (§1) LUHMES cells (ATCC, Manassas, VA, USA, CRL-2927) were seeded on fibronectin coated plates (Thermo Fisher Scientific, Waltham, MA, USA, CWP001, 354402). Undifferentiated cells were maintained in proliferation medium: Advanced DMEM/F12 (Invitrogen, Carlsbad, CA, USA), supplemented with N2 supplement (Invitrogen, Carlsbad, CA, USA), Penicillin-streptomycin-glutamine (Thermo Fisher Scientific, Waltham, MA, USA), and 40 ng/ml recombinant bFGF (Invitrogen, Carlsbad, CA, USA). To generate differentiated LUHMES, cells were switched to differentiation media for five days. […] For RNA quantification, cells were maintained in 6-well plates. […]
(§2) All cells were maintained at 37° C. containing […] and 5% CO2. […] Cell numbers were measured using disposable countess chamber slide on Countess II FL automated cell counter (Thermo Fisher Scientific, Waltham, MA, USA) under the default steps with mixing 10 μl of samples with 10 μl of trypan blue. CellTiter Blue reagent was used for measured cell viability using […] based on manufacturer instruction (Promega, Madison, WI, USA). H2O2 production represented relative reactive oxygen species (ROS) level was measured with the ROS-Glo H2O2 assay system using 50 nM with the default setting with level measured by luminometer (Promega, Madison, WI, USA).

LUHMES cells [2] = assay: Reactive oxygen species (ROS-Glo H2O2 assay) in LUHMES cells after hypoxia mimetic; details: differentiated LUHMES neurons compared with undifferentiated; 100 nM CoCl2 for 24 hours
Protocol: as §1, §2

NHIP = NHIP transcript levels by RT-qPCR in LUHMES cells after hypoxia mimetic; details: differentiated LUHMES cells
Protocol: as §1, with “days. Differentiation media: Advanced DMEM/F12, supplemented with N2 supplement, Penicillin-streptomycin-glutamine, 1 mM dbcAMP (MilliporeSigma, Burlington, MA, USA), 1 μg/ml tetracycline (Neta Scientific, Hainesport, NJ, USA), and 2 ng/ml recombinant human GDNF (Thermo Fisher Scientific, Waltham, MA, USA).” for “days.”
Total RNA was isolated from HEK293T cells transiently transfected with NHIP-eGFP or negative control NEG-eGFP using AllPrep DNA/RNA/Protein mini kit (Qiagen, Hilden, Germany). […] Fold changes of transcript levels were measured using the Fluidigm Real-Time PCR Analysis software calculated fold change of gene expression as the delta delta CT normalized to GAPDH (Fluidigm, San Francisco, CA, USA).

For `[Cl][Co][Cl]` [CoCl2, cobalt chloride], the cell viability (LUHMES cells [1]) was “significant decrease”, the “reactive oxygen species (ROS) levels” value (LUHMES cells [2]) was “increase” and the NHIP transcript levels (NHIP; 100 nM CoCl2 for 24 hours vs mock, normalized to GAPDH) was “significantly increased”. For the same compound, the “NHIP transcript levels after removal of hypoxia mimetic” value (NHIP; 48 hours of recovery (Day 8) after 24 hours of CoCl2) was “returned to untreated levels; also recorded: returned to mock control baseline levels”.
